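Protocol summary: plate cells (96-well), add compound at 5 concentrations, incubate 48 h, interpolate endpoints linearly. TGI denotes the concentration required for complete inhibition of growth.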
Key:
Experiment in all cases: DTP human tumour cell line panel, 48 h
[1] = system: HCT-15 colon
[2] = system: LXFL 529 NSCLC
[3] = system: 786-0 renal
[4] = system: UO-31 renal
[5] = system: NCI-H460 lung
[6] = system: HL-60(TB) leukemia
[7] = system: HOP-62 NSCLC
[8] = system: HCT-116 colon
[9] = system: A549 NSCLC
[10] = system: M19-MEL melanoma
[11] = system: RXF-631 renal
[12] = system: RXF 393 renal
[13] = system: SW-620 colon
[14] = system: SF-539 CNS
[15] = system: ACHN renal
[16] = system: OVCAR-5 ovarian
[17] = system: SK-MEL-28 melanoma
[18] = system: HT29 colon
[19] = system: TK-10 renal
[20] = system: SNB-75 CNS
[21] = system: SR leukemia
[22] = system: RPMI-8226 leukemia
[23] = system: CCRF-CEM leukemia
[24] = system: DMS 273 small cell lung
[25] = system: KM20L2 colon
[26] = system: EKVX NSCLC
[27] = system: HOP-92 NSCLC
[28] = system: SK-MEL-2 melanoma
[29] = system: SF-295 CNS
[30] = system: HOP-18 NSCLC
[31] = system: A498 renal
[32] = system: OVCAR-4 ovarian
[33] = system: LOX IMVI melanoma
[34] = system: NCI-H23 lung
[35] = system: M14 melanoma
[36] = system: OVCAR-8 ovarian
[37] = system: NCI-H226 lung
[38] = system: SNB-78 CNS
[39] = system: CAKI-1 renal
[40] = system: SNB-19 CNS
[41] = system: DLD-1 colon
[42] = system: HCC-2998 colon
[43] = system: SF-268 CNS
[44] = system: UACC-257 melanoma
[45] = system: K-562 leukemia
[46] = system: UACC-62 melanoma
[47] = system: OVCAR-3 ovarian
[48] = system: SK-OV-3 ovarian
[49] = system: IGROV1 ovarian
[50] = system: MOLT-4 leukemia
[51] = system: NCI-H522 lung
[52] = system: U251 CNS
[53] = system: SN12C renal
[54] = system: KM12 colon
[55] = system: SK-MEL-5 melanoma
[56] = system: DMS 114 small cell lung
[57] = system: MALME-3M melanoma
[58] = system: XF 498 CNS
[59] = system: COLO 205 colon

Measured: TGI

N#CN/C(N)=N/CO
> 87.8 µM: [41]
> 56.3 µM: [13]
> 57.7 µM: [33]
> 64.4 µM: [8]
> 76.2 µM: [22]
> 60.9 µM: [56]
> 100 µM: [2] | [4] | [5] | [6] | [7] | [9] | [10] | [11] | [14] | [15] | [16] | [17] | [18] | [19] | [20] | [23] | [24] | [25] | [26] | [27] | [28] | [29] | [30] | [31] | [32] | [34] | [35] | [36] | [37] | [38] | [39] | [40] | [42] | [43] | [44] | [45] | [46] | [47] | [48] | [49] | [50] | [51] | [53] | [55] | [57] | [58]
> 55.2 µM: [54]
72.4 µM: [21]
> 57.8 µM: [59]
> 90.2 µM: [52]
> 62.1 µM: [3]
> 56.9 µM: [1]
43.5 µM: [12]

CCN(CC)CCCN1CCc2c([nH]c3ccccc23)C1c1cccnc1 (centres undefined)
> 100 µM: [1] | [2] | [3] | [4] | [5] | [6] | [7] | [8] | [9] | [10] | [11] | [12] | [13] | [14] | [15] | [16] | [17] | [18] | [19] | [20] | [21] | [22] | [23] | [24] | [25] | [26] | [27] | [28] | [29] | [31] | [32] | [33] | [34] | [35] | [36] | [37] | [38] | [39] | [40] | [41] | [42] | [44] | [45] | [46] | [47] | [48] | [49] | [50] | [51] | [52] | [53] | [54] | [55] | [56] | [57] | [58] | [59]

Cc1ccc(S(=O)(=O)N(C=O)N=C2CCN(Cc3ccccc3)CC2)cc1
> 100 µM: [1] | [2] | [3] | [4] | [5] | [6] | [7] | [8] | [9] | [10] | [11] | [12] | [13] | [14] | [15] | [16] | [18] | [19] | [20] | [21] | [22] | [23] | [24] | [25] | [26] | [28] | [29] | [30] | [31] | [32] | [33] | [34] | [35] | [36] | [37] | [38] | [39] | [40] | [41] | [42] | [44] | [45] | [46] | [47] | [48] | [49] | [50] | [51] | [52] | [53] | [54] | [55] | [57] | [58] | [59]

NC(=S)N/N=C(\CC1OC(=O)c2ccccc21)c1ccc(Cl)cc1 (centres undefined)
98.8 µM: [59]
62.8 µM: [33]
> 100 µM: [1] | [2] | [3] | [5] | [6] | [9] | [13] | [15] | [16] | [17] | [19] | [20] | [21] | [22] | [24] | [25] | [29] | [35] | [38] | [40] | [41] | [43] | [44] | [45] | [47] | [48] | [49] | [50] | [53] | [57] | [58]
52 µM: [54]
49 µM: [12]
53.3 µM: [37]
84.9 µM: [4]
75 µM: [56]
47.2 µM: [46]
99 µM: [32]
54.9 µM: [8]
48.6 µM: [42]
91.7 µM: [27]
74.1 µM: [11]
57.7 µM: [34]
65.9 µM: [18]
66.1 µM: [10]
35.6 µM: [36]
46 µM: [7]
99.2 µM: [39]
63.8 µM: [51]
44.9 µM: [14]
73.6 µM: [52]

Source: PubChem BioAssay (NCI)
